Laboratory results published in article PMC3420979 (Bioorganic & medicinal chemistry letters, 2012).

Experiments:
Abl = Abl (Homo sapiens, UniProt P00519); test: Human kinase inhibition, Abl; type: biochemical; details: parasite CDPK1s versus human Src or Abl
CpCDPK1 = biological target: T1, CpCDPK1 (Cryptosporidium parvum, UniProt A3FQ16); test: Enzyme inhibition assay, CpCDPK1; type: biochemical; details: IC50 against CpCDPK1 (nM), stated for both parasite CDPK1s
T1 sequence (A3FQ16 1-538): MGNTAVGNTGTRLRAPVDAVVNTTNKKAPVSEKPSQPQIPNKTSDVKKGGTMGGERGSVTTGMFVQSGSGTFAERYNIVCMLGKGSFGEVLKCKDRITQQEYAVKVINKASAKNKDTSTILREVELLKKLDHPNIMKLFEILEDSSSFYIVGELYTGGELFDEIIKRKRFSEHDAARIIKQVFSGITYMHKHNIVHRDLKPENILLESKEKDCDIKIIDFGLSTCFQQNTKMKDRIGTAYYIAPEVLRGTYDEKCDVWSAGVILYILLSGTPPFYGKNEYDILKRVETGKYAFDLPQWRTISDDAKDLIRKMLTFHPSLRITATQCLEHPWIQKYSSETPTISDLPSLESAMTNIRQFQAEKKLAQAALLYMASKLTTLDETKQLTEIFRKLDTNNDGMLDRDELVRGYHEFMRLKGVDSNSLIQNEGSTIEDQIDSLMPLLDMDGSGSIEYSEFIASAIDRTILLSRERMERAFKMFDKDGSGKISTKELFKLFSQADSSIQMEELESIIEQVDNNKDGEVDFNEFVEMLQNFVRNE

Abl, sequence (P00519 whole entry): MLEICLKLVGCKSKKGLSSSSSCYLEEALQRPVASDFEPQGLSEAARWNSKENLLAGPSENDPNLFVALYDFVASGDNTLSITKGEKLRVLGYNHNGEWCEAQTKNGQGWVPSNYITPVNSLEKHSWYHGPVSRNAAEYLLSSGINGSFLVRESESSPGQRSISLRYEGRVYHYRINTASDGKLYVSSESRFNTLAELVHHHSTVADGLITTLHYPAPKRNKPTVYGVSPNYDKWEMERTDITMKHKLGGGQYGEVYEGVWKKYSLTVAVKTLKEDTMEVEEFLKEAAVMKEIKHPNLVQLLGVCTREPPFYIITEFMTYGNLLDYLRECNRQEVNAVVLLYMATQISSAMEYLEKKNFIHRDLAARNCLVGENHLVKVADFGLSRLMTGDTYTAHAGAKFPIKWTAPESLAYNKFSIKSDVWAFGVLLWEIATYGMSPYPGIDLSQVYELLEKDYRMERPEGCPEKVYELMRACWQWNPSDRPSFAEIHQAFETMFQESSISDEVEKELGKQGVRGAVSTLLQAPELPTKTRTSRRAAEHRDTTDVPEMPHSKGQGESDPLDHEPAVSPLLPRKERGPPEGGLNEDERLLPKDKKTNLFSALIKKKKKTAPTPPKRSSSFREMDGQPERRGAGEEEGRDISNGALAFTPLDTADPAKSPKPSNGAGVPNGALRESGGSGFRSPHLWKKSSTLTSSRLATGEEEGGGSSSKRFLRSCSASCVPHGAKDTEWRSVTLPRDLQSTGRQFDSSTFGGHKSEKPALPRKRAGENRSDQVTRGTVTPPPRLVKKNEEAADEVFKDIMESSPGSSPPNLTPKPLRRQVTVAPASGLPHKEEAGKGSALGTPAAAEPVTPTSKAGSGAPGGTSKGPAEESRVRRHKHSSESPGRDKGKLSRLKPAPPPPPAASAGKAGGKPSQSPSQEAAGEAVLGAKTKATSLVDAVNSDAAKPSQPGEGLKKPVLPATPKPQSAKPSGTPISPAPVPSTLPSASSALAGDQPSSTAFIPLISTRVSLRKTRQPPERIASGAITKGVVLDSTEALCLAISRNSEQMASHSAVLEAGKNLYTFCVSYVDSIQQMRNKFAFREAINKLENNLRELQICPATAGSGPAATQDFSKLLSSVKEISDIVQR

How did the “selectivity index over human Src or Abl” value (Abl) turn out when Nc1nc2ccc(C(=O)c3ccccc3)cc2n1CCC1CCNCC1 [7c] was run?
The value was over 200 fold.

What about the IC50 (CpCDPK1) of the same molecule?
The IC50 was under 50 nM.

Which results are given for CN1CCN(CCn2c(N)nc3ccc(C(=O)c4ccccc4)cc32)CC1 [7p]?
selectivity index over human Src or Abl (Abl): > 200 fold; IC50 (CpCDPK1): < 50 nM
